# Reference: US20160075653A1, “NEMATICIDAL N-(PHENYLCYCLOALKYL)CARBOXAMIDES AND N-(PHENYLCYCLOALKYL)THIOCARBOXAMIDES” (BAYER CROPSCIENCE AKTIENGESELLSCHAFT, priority 2013, published 2016)
# Experiment: Measurement of log P values by HPLC on reversed phase columns (methods [a] pH 2.3, [b] pH 2.7, [c] pH 7.8)
# Format: physicochemical
# Conditions: HPLC on reversed phase column, method [b], pH 2.7
# Summary of the method: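 Determined per EEC Directive 79/831 Annex V.A8 by reversed-phase HPLC, 10-95% acetonitrile gradient: [a] pH 2.3, 0.1% phosphoric acid; [b] LC-MS, pH 2.7, 0.1% formic acid; [c] LC-MS, pH 7.8, 0.001 molar ammonium hydrogen carbonate. Calibrated with C3-C16 alkan-2-ones by retention-time interpolation.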
row,logP,Structure (SMILES)
1,3.76^[b],O=C(N[C@@H]1CC[C@H]1c1ccc(Br)cc1C(F)(F)F)c1cccnc1C(F)(F)F (relative stereo) [Example 658]
2,2.50^[b],O=C(N[C@@H]1CC[C@@H]1c1ccc(Cl)cc1C(F)(F)F)c1cccnc1 (relative stereo) [Example 714]
3,4.55^[b],O=C(NC1CCC1c1ccc(Cl)cc1C(F)(F)F)c1sccc1I (stereo not shown) [Example 710]
4,3.17^[b],O=C(NC1CCC1c1ccccc1C(F)(F)F)c1ncccc1Br (stereo not shown) [Example 605]
5,4.04^[b],O=C(N[C@@H]1CC[C@@H]1c1ccc(Cl)cc1C(F)(F)F)c1ccc(Cl)cc1 (relative stereo) [Example 707]
6,3.87^[b],O=C(N[C@@H]1CC[C@H]1c1ccc(Cl)cc1C(F)(F)F)c1ccccc1 (relative stereo) [Example 679]
7,3.05^[b],O=C(N[C@@H]1CC[C@@H]1c1ccc(Cl)cc1Cl)c1nccnc1Cl (relative stereo) [Example 676]
8,3.49^[b],Cc1nc(C(F)(F)F)c(C(=O)N[C@@H]2CC[C@H]2c2ccccc2C(F)(F)F)s1 (relative stereo) [Example 633]
9,3.28^[b],Cc1nc(C(F)(F)F)c(C(=O)N[C@@H]2CC[C@@H]2c2cccc(F)c2C(F)(F)F)s1 (relative stereo) [Example 626]

# Same assay, conditions: HPLC on reversed phase column, method [c], pH 7.8
row,logP,Structure (SMILES)
1,3.66^[c];,O=C(N[C@@H]1CC[C@H]1c1ccc(Br)cc1C(F)(F)F)c1cccnc1C(F)(F)F (relative stereo) [Example 658]
2,3.10^[c];,O=C(NC1CCC1c1ccccc1C(F)(F)F)c1ncccc1Br (stereo not shown) [Example 605]

# Same assay, conditions: HPLC on reversed phase columns, method [b], pH 2.7
row,logP,Structure (SMILES)
1,3.06^[b],Cc1occc1C(=O)N[C@@H]1CCC[C@@H]1c1ccc(F)c(F)c1 (relative stereo) [Example 59]
2,3.35^[b],Cc1cc(C(=O)N[C@@H]2CCC[C@@H]2c2ccc(F)c(F)c2)c(C)o1 (relative stereo) [Example 67]
3,3.30^[b],O=C(NC1CCC1c1c(Cl)cccc1Cl)c1ccccc1 (stereo not shown) [Example 728]
4,2.86^[b],Cc1nnsc1C(=O)N[C@@H]1CCC[C@@H]1c1ccc(F)c(F)c1 (relative stereo) [Example 72]
5,3.35^[b],O=C(N[C@@H]1CCC[C@@H]1c1ccc(F)c(F)c1)c1ccccc1Br (relative stereo) [Example 94]
6,3.41^[b],Cn1cc(C(=O)NC2CCC2c2ccc(Cl)cc2C(F)(F)F)c(C(F)F)n1 (stereo not shown) [Example 718]
7,2.82^[b],Cc1nn(C)c(Cl)c1C(=O)N[C@@H]1CCC[C@@H]1c1ccc(F)c(F)c1 (relative stereo) [Example 85]
8,1.30^[b],O=C(NC1CC1c1ccccc1)c1ccncc1 (stereo not shown) [Example 39]
9,2.57^[b],Cc1ncc(C(=O)N[C@@H]2CCC[C@@H]2c2ccc(F)c(F)c2)s1 (relative stereo) [Example 71]
10,2.80^[b],CCCc1nn(C)cc1C(=O)N[C@@H]1CCC[C@@H]1c1ccc(F)c(F)c1 (relative stereo) [Example 81]
11,2.62^[b],O=C(N[C@@H]1CCC[C@H]1c1ccc(F)c(F)c1)c1ccncc1F (relative stereo) [Example 107]

# Same assay, conditions: HPLC reversed phase, method [b] (pH 2.7)
row,logP,Structure (SMILES)
1,3.94^[b],O=C(NC1CCCCCC1c1ccccc1C(F)(F)F)c1cccnc1C(F)(F)F (stereo not shown) [Example 418]
2,3.06^[b],CC(C)Oc1ccc([C@H]2CCC[C@H]2NC(=O)c2cccnc2Cl)cc1 (relative stereo) [Example 326]
3,2.75^[b],Cn1cc(C(=O)N[C@@H]2CC[C@@H]2c2ccccc2C(F)(F)F)c(C(F)F)n1 (relative stereo) [Example 263]
4,3.97^[b],O=C(NC1CCCCC1c1ccccc1Br)c1ccccc1Cl (stereo not shown) [Example 405]
5,3.34^[b],Cc1nc(C(F)(F)F)c(C(=O)N[C@@H]2CC[C@H]2c2ccccc2Cl)s1 (relative stereo) [Example 554]
6,4.12^[b],O=C(NC1CCCCC1c1ccccc1Br)c1ccccc1I (stereo not shown) [Example 406]
7,3.29^[b],Cc1nc(C(F)(F)F)c(C(=O)N[C@@H]2C[C@@H]2c2ccc(Cl)cc2Cl)s1 (relative stereo) [Example 568]
8,3.11^[b],O=C(N[C@@H]1CC[C@H]1c1ccccc1Cl)c1c(F)cccc1F (relative stereo) [Example 243]
9,4.46^[b],CN(C(=O)c1ccccc1C(F)(F)F)C1CCCC1c1ccc(C(F)(F)F)cc1 (stereo not shown) [Example 307]
10,4.33^[b],O=C(NC1CCC1c1ccc(Cl)cc1Cl)c1ccc(Cl)cc1 (stereo not shown) [Example 452]
11,4.02^[b],O=C(NC1CCCCC1c1ccccc1C(F)(F)F)c1ccccc1Cl (stereo not shown) [Example 388]
12,3.93^[b],O=C(N[C@@H]1CC[C@@H]1c1c(F)cccc1C(F)(F)F)c1ccc(Cl)cc1Cl (relative stereo) [Example 535]
13,2.41^[b],O=C(N[C@@H]1CC[C@H]1c1ccc(F)cc1C(F)(F)F)c1cccnc1 (relative stereo) [Example 526]
14,3.56^[b],Cn1cc(C(=O)N[C@@H]2CCCC[C@H]2c2ccccc2C(F)(F)F)c(C(F)F)n1 (relative stereo) [Example 288]
15,3.38^[b],O=C(N[C@@H]1CC[C@H]1c1ccc(F)cc1C(F)(F)F)c1c(F)cccc1F (relative stereo) [Example 492]
16,3.59^[b],O=C(NC1CCC1c1ccccc1C(F)(F)F)c1cccc(Cl)c1 (stereo not shown) [Example 436]
17,2.47^[b],Cc1nn(C)cc1C(=O)NC1CCCC1c1ccccc1C(F)(F)F (stereo not shown) [Example 310]
18,3.84^[b],O=C(NC1CCCCC1c1c(F)cccc1F)c1ccccc1I (stereo not shown) [Example 400]
19,3.85^[b],O=C(N[C@@H]1CC[C@@H]1c1ccc(F)cc1C(F)(F)F)c1ccc(Cl)cc1Cl (relative stereo) [Example 506]
20,4.59^[b],O=C(NC1CCCCCC1c1ccccc1C(F)(F)F)c1ccccc1I (stereo not shown) [Example 419]
21,3.56^[b],O=C(N[C@@H]1CC[C@H]1c1ccc(F)cc1C(F)(F)F)c1ccccc1Cl (relative stereo) [Example 512]
22,2.47^[b],Cn1cc(C(=O)N[C@@H]2CC[C@@H]2c2ccccc2Cl)c(C(F)F)n1 (relative stereo) [Example 255]
23,3.97^[b],O=C(NC1CCC1c1ccc(F)cc1C(F)(F)F)c1ncc(C(F)(F)F)cc1Cl (stereo not shown) [Example 483]
24,3.33^[b],O=C(N[C@@H]1CC[C@H]1c1ccccc1Cl)c1ccccc1Br (relative stereo) [Example 244]
25,4.01^[b],O=C(NC1CCCCC1c1ccccc1Cl)c1ccccc1C(F)(F)F (stereo not shown) [Example 383]
26,3.87^[b],O=C(NC1CCCC1c1ccc(Cl)cc1Cl)c1ccccc1Cl (stereo not shown) [Example 351]
27,3.91^[b],O=C(N[C@@H]1CC[C@@H]1c1cc(F)ccc1C(F)(F)F)c1ncc(C(F)(F)F)cc1Cl (relative stereo) [Example 529]
28,2.95^[b],Cn1cc(C(=O)NC2CCC2c2ccc(Cl)cc2Cl)c(C(F)F)n1 (stereo not shown) [Example 469]
29,2.40^[b],O=C(N[C@@H]1CC[C@@H]1c1ccccc1Cl)c1cccnc1Cl (relative stereo) [Example 534]

row,Structure (SMILES),logP
1,O=C(N[C@@H]1C[C@@H]1c1ccc(Cl)cc1Cl)c1ccccc1Cl (relative stereo) [Compound 580],3.27^[b]
2,O=C(N[C@@H]1C[C@@H]1c1ccc(Cl)cc1Cl)c1c(F)cccc1F (relative stereo) [Compound 581],3.44^[b]

# Same assay, conditions: HPLC reversed phase, method [c] pH 7.8
row,logP,Structure (SMILES)
1,2.99^[c];,CC(C)Oc1ccc([C@H]2CCC[C@H]2NC(=O)c2cccnc2Cl)cc1 (relative stereo) [Example 326]
2,4.40^[c];,CN(C(=O)c1ccccc1C(F)(F)F)C1CCCC1c1ccc(C(F)(F)F)cc1 (stereo not shown) [Example 307]

# Same assay, conditions: method [b], HPLC reversed phase, pH 2.7
row,logP,Structure (SMILES)
1,5.01^[b],Cn1nc(C(F)F)c(C(=S)N(C2CC2)C2CCCCC2(C)c2ccccc2)c1F (stereo not shown) [Example 190]
2,3.60^[b],Cn1cc(C(=O)N(C2CC2)C2CCCCC2c2ccccc2)c(I)n1 (stereo not shown) [Example 145]
3,3.56^[b],O=C(NC1CC1c1ccc(Cl)cc1)c1sccc1I (stereo not shown) [Example 202]
4,3.13^[b],O=C(NC1CC1c1ccccc1Cl)c1ccccc1C(F)(F)F (stereo not shown) [Example 230]
5,5.05^[b],Cn1nc(C(F)F)c(C(=O)N(C2CC2)C2CCCCC2c2ccc(Cl)cc2Cl)c1F (stereo not shown) [Example 168]
6,2.64^[b],Cn1cc(C(=O)NC2CC2c2ccccc2C(F)(F)F)c(C(F)F)n1 (stereo not shown) [Example 234]
7,4.31^[b],Cn1nc(C(F)F)c(C(=O)N(C2CC2)C2CCCC2c2ccccc2Cl)c1F (stereo not shown) [Example 167]
8,3.31^[b],O=C(NC1CC1c1ccccc1C(F)(F)F)c1ccccc1I (stereo not shown) [Example 232]
9,3.30^[b],O=C(NC1CCC1c1ccccc1Cl)c1ccccc1Cl (stereo not shown) [Example 239]
10,3.69^[b],FC(F)(F)c1ccccc1C(=S)NC1CC1c1ccccc1 (stereo not shown) [Example 148]
11,2.30^[b],Cn1cc(C(=O)NC2CC2c2ccc(Cl)cc2)c(C(F)F)n1 (stereo not shown) [Example 151]
12,3.46^[b],Cc1cc(C(=O)N[C@@H]2CCC[C@H]2c2ccc(F)c(F)c2)c(C)o1 (relative stereo) [Example 134]
13,4.67^[b],Cn1nc(C(F)F)c(C(=O)N(C2CC2)C2CCCC2c2ccc(Cl)cc2Cl)c1F (stereo not shown) [Example 166]

row,Structure (SMILES),logP
1,O=C(NC1CC1c1ccc(Cl)cc1Cl)c1cccnc1Cl (stereo not shown) [Example 211],2.82^[b]

# Same assay, conditions: method [c], HPLC reversed phase, pH 7.8
row,Structure (SMILES),logP
1,O=C(NC1CC1c1ccc(Cl)cc1)c1sccc1I (stereo not shown) [Example 202],3.50^[c];
2,O=C(NC1CC1c1ccc(Cl)cc1Cl)c1cccnc1Cl (stereo not shown) [Example 211],2.77^[c];

# Same assay, conditions: reversed phase HPLC columns, pH 2.7, HPLC on reversed phase column, method [b], pH 2.7; read-out: logP
row,chromatographic logP,Structure (SMILES)
1,2.79,O=C(N[C@@H]1CC[C@H]1c1ccccc1C(F)(F)F)c1cccnc1Cl [Example 620]

# Same assay, conditions: reversed phase HPLC columns, pH 2.7, HPLC on reversed phase columns, method [b] (pH 2.7); read-out: logP
row,chromatographic logP,Structure (SMILES)
1,4.21,O=C(N[C@@H]1CC[C@@H]1c1c(Cl)cccc1Cl)c1sccc1I [Example 745]
2,2.95,O=C(N[C@@H]1CC[C@@H]1c1c(Cl)cccc1Cl)c1cccnc1C(F)(F)F [Example 746]
3,3.15,O=C(N[C@@H]1C[C@]1(F)c1ccc(Cl)cc1)c1sccc1I [Example 749]

# Same assay, conditions: reversed phase HPLC columns, pH 2.7, HPLC reversed phase, method [b] (pH 2.7); read-out: logP
row,chromatographic logP,Structure (SMILES)
1,3.42,O=C(N[C@@H]1CC[C@H]1c1ccccc1C(F)(F)F)c1ccccc1Cl [Example 498]
